Like-named read-outs stand apart in the source and are kept apart here.
Key:
[1] = data from US20130324496A1, cited from earlier work
[2] = Solvent-based screening of crystal form changes; format: physicochemical
[3] = Changes of crystal form at different temperatures; format: physicochemical
[4] = Light stability assessment (LS-3000 light test chamber, HPLC purity after illumination); format: physicochemical; details: 1.2 million lux·hours of illumination, 4400 lux for 12 days, layer no more than 1 mm
Text: Samples of different crystal forms were placed in a watch glass and spread to a thin layer with thickness of no more than 1 mm, placed in a LS-3000 light test chamber with a light intensity of 4400 lux for 12 days.
(2) The purity of the sample after illumination was checked by HPLC and compared with the initial purity.

[5] = 100 mg suspended in 200 μL Ethyl acetate
[6] = 100 mg suspended in 200 μL MTBE

COC(=O)N[C@H](C(=O)N1CC2(CC2)C[C@H]1c1ncc(-c2ccc3c(c2)C(F)(F)c2cc(-c4ccc5nc([C@@H]6[C@H]7CC[C@H](C7)N6C(=O)[C@@H](NC(=O)OC)C(C)C)[nH]c5c4)ccc2-3)[nH]1)C(C)C [Ledipasvir amorphous, Ledipasvir]
HPLC purity decreased, % ([1]; 1.2 million lux·hours): 8.3%

COC(=O)N[C@H](C(=O)N1CC2(CC2)C[C@H]1c1ncc(-c2ccc3c(c2)C(F)(F)c2cc(-c4ccc5nc([C@@H]6[C@H]7CC[C@H](C7)N6C(=O)[C@@H](NC(=O)OC)C(C)C)[nH]c5c4)ccc2-3)[nH]1)C(C)C [Ledipasvir diacetone solvate]
HPLC purity decreased, % ([1]; 1.2 million lux·hours): 6.3%

COC(=O)N[C@H](C(=O)N1CC2(CC2)C[C@H]1c1ncc(-c2ccc3c(c2)C(F)(F)c2cc(-c4ccc5nc([C@@H]6[C@H]7CC[C@H](C7)N6C(=O)[C@@H](NC(=O)OC)C(C)C)[nH]c5c4)ccc2-3)[nH]1)C(C)C [crystal form II of Ledipasvir]
HPLC purity decreased, % ([1]; 1.2 million lux·hours): 6.3%

COC(=O)N[C@H](C(=O)N1CC2(CC2)C[C@H]1c1ncc(-c2ccc3c(c2)C(F)(F)c2cc(-c4ccc5nc([C@@H]6[C@H]7CC[C@H](C7)N6C(=O)[C@@H](NC(=O)OC)C(C)C)[nH]c5c4)ccc2-3)[nH]1)C(C)C [monoacetone solvate]
HPLC purity decreased, % ([1]; 1.2 million lux·hours): 6.3%

COC(=O)N[C@H](C(=O)N1CC2(CC2)C[C@H]1c1ncc(-c2ccc3c(c2)C(F)(F)c2cc(-c4ccc5nc([C@@H]6[C@H]7CC[C@H](C7)N6C(=O)[C@@H](NC(=O)OC)C(C)C)[nH]c5c4)ccc2-3)[nH]1)C(C)C [crystal form A of Ledipasvir, LDV-acetonitrile-MTBE ternary solvate]
Solvent-based screening result (change of crystal form) ([2]; 100 mg suspended in 200 μL ACN): crystal form D
Solvent-based screening result (change of crystal form) [2, 5]: solution
Solvent-based screening result (change of crystal form) [2, 6]: amorphous form
Crystal Form ([3]; 120° C., nitrogen protection): crystal form C
Crystal Form ([3]; 120° C., nitrogen protection, listed as crystal form A): crystal form C
Crystal Form ([3]; 180° C., nitrogen protection): amorphous form
Crystal Form ([3]; Room temperature): crystal form A
HPLC purity decreased, % [4]: 2.0%
HPLC purity decreased, % ([4]; listed as LDV-acetonitrile-MTBE ternary solvate): 2.0%
HPLC purity decreased, % ([4]; listed as Ledipasvir crystal form A): 2.0%

COC(=O)N[C@H](C(=O)N1CC2(CC2)C[C@H]1c1ncc(-c2ccc3c(c2)C(F)(F)c2cc(-c4ccc5nc([C@@H]6[C@H]7CC[C@H](C7)N6C(=O)[C@@H](NC(=O)OC)C(C)C)[nH]c5c4)ccc2-3)[nH]1)C(C)C [crystal form B of Ledipasvir, LDV-acetone-MTBE ternary solvate]
Solvent-based screening result (change of crystal form) ([2]; 100 mg suspended in 200 μL ACN): crystal form D
Solvent-based screening result (change of crystal form) [2, 5]: solution
Solvent-based screening result (change of crystal form) [2, 6]: amorphous form
Crystal Form ([3]; 120° C., nitrogen protection): crystal form E
Crystal Form ([3]; 120° C., nitrogen protection, listed as crystal form B): crystal form E
Crystal Form ([3]; 180° C., nitrogen protection): amorphous form
Crystal Form ([3]; Room temperature): crystal form B
HPLC purity decreased, % [4]: 0.6%
HPLC purity decreased, % ([4]; listed as LDV-acetone-MTBE ternary solvate): 0.6%
HPLC purity decreased, % ([4]; listed as Ledipasvir crystal form B): 0.6%

COC(=O)N[C@H](C(=O)N1CC2(CC2)C[C@H]1c1ncc(-c2ccc3c(c2)C(F)(F)c2cc(-c4ccc5nc([C@@H]6[C@H]7CC[C@H](C7)N6C(=O)[C@@H](NC(=O)OC)C(C)C)[nH]c5c4)ccc2-3)[nH]1)C(C)C [crystal form I of Ledipasvir]
HPLC purity decreased, % ([1]; 900,000 lux·hours): 6.6%

— patent publication US10294219B2 (priority 2015, dated 2019)
